Entries after “also recorded” stand apart in the source; their conditions may differ. Marks after values point to notes of the source that are not given here. Numbered stars: 1 amine (or outer) side, 2 acyl side, 3 side chain; on linkers, the order of the positions; unused ones are H or OH. Square brackets hold non-standard residues; d marks the D form. Side chains are listed from the residue outwards. Peptide text beside a SMILES is read from it. * marks the point of attachment. Isobutyryl(2-(3-CN-5-F-Ph)) = CC(C)(C(=O)*)c1cc(F)cc(C#N)c1; C20 diacid = O=C(O)CCCCCCCCCCCCCCCCCCC(=O)*; γGlu = O=C(O)[C@H](CCC(=O)[*:2])N[*:1]; AEEA = NCCOCCOCC(=O)O; Aib = CC(C)(N)C(=O)O; βAla = NCCC(=O)O
Key:
[1] = Phase 1 MAD Cohorts 6-8: safety and tolerability (TEAEs); format: in vivo, human
Excerpt: The primary objective of this study is to determine the safety and tolerability of CT-388 in otherwise healthy overweight and obese adult participants when administered once weekly over 4 consecutive weeks with titrated dosing.
Safety and tolerability will be assessed by monitoring adverse events (AE) including local injection-site reactions, measuring vital signs and ECGs, and performing clinical laboratory blood and urine analyses.
• Cohort 6: One weekly dose titrated across 4 consecutive weeks with CT-388 doses of . . . • 5.0 mg at Day 1 • 5.0 mg at Day 8 • 5.0 mg at Day 15 • 7.5 mg at Day 22 • . . . or matched placebo administered subcutaneously in the abdomen • Cohort 7: One weekly dose titrated across 4 consecutive weeks with CT-388 doses of . . . • 5.0 mg at Day 1 • 5.0 mg at Day 8 • 8.0 mg at Day 15 • 12.0 mg at Day 22 • . . . or matched placebo administered subcutaneously in the abdomen • Cohort 8: One weekly dose titrated across 4 consecutive weeks with CT-388 doses of . . . • 5.0 mg at Day 1 • 8.0 mg at Day 8 • 12.0 mg at Day 15 • 12.0 mg at Day 22 • . . . or matched placebo administered subcutaneously in the abdomen (the third dose in Cohort 8 can be lowered to 8.0 mg based on tolerability data from Cohort 7) • Cohort 9: One weekly dose titrated across 4 consecutive weeks with CT-388 doses of . . . • 8.0 mg at Day 1 • 8.0 mg at Day 8 • 12.0 mg at Day 15 • 16.0 mg at Day 22 • . . . or matched placebo administered subcutaneously in the abdomen • Cohort 10: the following two dosing options are proposed in Table 3 below:
A Phase 1, randomized, placebo-controlled, double-blind study was conducted where single ascending doses (SAD; n=40; 0.5-7.5 mg) and multiple ascending doses (MAD; n=24; 5-12 mg via titration in 3 cohorts) were administered as described in Example 1 to overweight/obese adults.
The 24 patients in the MAD arm were divided into three cohorts (Cohorts 6, 7, and 8) as shown in Table 5 below (EOT: end of treatment).
Briefly, participants were randomized 3:1 (6 to CT-388, 2 to placebo, n=8 per cohort). CT-388 was administered once weekly at a dose of 5 mg at baseline in all cohorts and up-titrated up to 12 mg in Cohorts 7 & 8. Oral Glucose Tolerance Test (OGTT) with 75 g glucose solution was performed at baseline (Day −1) and on Day 23. Blood was collected at 15 min prior to OGTT, at OGTT start, and in 30-minute intervals until 120 minutes. Fasting glucose, insulin, C-peptide, and HOMA-IR were measured/calculated at baseline and on Day 23.

[2] = chronic toxicology, repeat dosing 26 weeks; format: in vivo; conditions: rats
Excerpt: Thus, CT-388 can be a potent drug that induces significant weight loss and helps achieve optimal glycemic control, with acceptable tolerability, in overweight or obese adults with or without T2DM or other weight-related comorbidities. CT-388 can potentially be used as a non-invasive alternative to bariatric surgery for weight management.

[3] = Cohort 7, 5/5/8/12 mg SC QW, N = 6
[4] = Cohort 8, 5/8/12/12 mg SC QW, N = 6

CC[C@H](C)[C@H](NC(=O)[C@H](CC(C)C)NC(=O)[C@H](Cc1c[nH]c2ccccc12)NC(=O)[C@H](CCC(N)=O)NC(=O)[C@@H](NC(=O)[C@H](Cc1ccccc1)NC(=O)[C@H](C)NC(=O)[C@H](CCCCNC(=O)COCCOCCNC(=O)COCCOCCNC(=O)CC[C@H](NC(=O)CCCCCCCCCCCCCCCCCCC(=O)O)C(=O)O)NC(=O)[C@H](CCC(N)=O)NC(=O)[C@H](C)NC(=O)[C@@H](NC(=O)[C@H](CCCCN)NC(=O)[C@H](CC(=O)O)NC(=O)[C@H](CC(C)C)NC(=O)C(C)(C)NC(=O)[C@@H](NC(=O)[C@H](CO)NC(=O)[C@H](Cc1ccc(O)cc1)NC(=O)[C@H](CC(=O)O)NC(=O)[C@H](CO)NC(=O)[C@@H](NC(=O)[C@H](Cc1ccccc1)NC(=O)[C@@H](NC(=O)CNC(=O)[C@H](CCC(=O)O)NC(=O)CCNC(=O)C(C)(C)c1cc(F)cc(C#N)c1)[C@@H](C)O)[C@@H](C)O)[C@@H](C)CC)[C@@H](C)CC)C(C)C)C(=O)N[C@@H](C)C(=O)NCC(=O)NCC(=O)N1CCC[C@H]1C(=O)N[C@@H](CO)C(=O)N[C@@H](CO)C(=O)NCC(=O)N[C@@H](C)C(=O)N1CCC[C@H]1C(=O)N1CCC[C@H]1C(=O)N1CCC[C@H]1C(=O)N[C@@H](CO)C(N)=O [CT-388] ({Isobutyryl(2-(3-CN-5-F-Ph))-βAla}-EGTFTSDYSI[Aib]LDKIAQK([AEEA-AEEA-γGlu-C20 diacid])AFVQWLIAGGPSSGAPPPS-NH2)
Nausea Grade 1 [1, 3]: 1 (16.7) n (%) | Nausea Grade 2 [1, 3]: 0 n (%) | Nausea Grade 3 [1, 3]: 0 n (%) | Serious TEAEs [1, 3]: 0 # Events | Subjects discontinued due to TEAE [1, 3]: 0 n (%) | Subjects with at least 1 TEAE [1, 3]: 6 n (%) | TEAE Severity: Grade 1 [1, 3]: 6 n (%) | TEAE Severity: Grade 2 [1, 3]: 1 n (%) | TEAE Severity: Grade 3 [1, 3]: 0 n (%) | Vomiting [1, 3]: 2 (33.3) n (%) | Vomiting Grade 1 [1, 3]: 2 (33.3) n (%) | Vomiting Grade 2 [1, 3]: 0 n (%) | Vomiting Grade 3 [1, 3]: 0 n (%) | Abdominal Distention [1, 4]: 0 n (%) | Constipation [1, 4]: 1 (16.7) n (%) | Constipation Grade 1 [1, 4]: 1 (16.7) n (%) | Constipation Grade 2 [1, 4]: 0 n (%) | Constipation Grade 3 [1, 4]: 0 n (%) | Diarrhea [1, 4]: 3 (50.0) n (%) | Diarrhea Grade 1 [1, 4]: 3 (50.0) n (%) | Diarrhea Grade 2 [1, 4]: 0 n (%) | Diarrhea Grade 3 [1, 4]: 0 n (%) | Drug-related TEAEs [1, 4]: 25 # Events | Dyspepsia [1, 4]: 0 n (%) | Eructation [1, 4]: 1 (16.7) n (%) | Fatal TEAEs [1, 4]: 0 # Events | GI TEAEs (Total) [1, 4]: 5 (83.3) n (%) | Gastroesophageal Reflux Disease [1, 4]: 2 (33.3) n (%) | Nausea [1, 4]: 3 (50.0) n (%) | Nausea Grade 1 [1, 4]: 2 (33.3) n (%) | Nausea Grade 2 [1, 4]: 1 (16.7) n (%) | Nausea Grade 3 [1, 4]: 0 n (%) | Serious TEAEs [1, 4]: 0 # Events | Subjects discontinued due to TEAE [1, 4]: 0 n (%) | Subjects with at least 1 TEAE [1, 4]: 6 n (%) | TEAE Severity: Grade 1 [1, 4]: 6 n (%) | TEAE Severity: Grade 2 [1, 4]: 3 n (%) | TEAE Severity: Grade 3 [1, 4]: 0 n (%) | Vomiting [1, 4]: 2 (33.3) n (%) | Vomiting Grade 1 [1, 4]: 2 (33.3) n (%) | Vomiting Grade 2 [1, 4]: 1 (16.7) n (%) | Vomiting Grade 3 [1, 4]: 0 n (%) | tolerability ([1]; MAD cohorts, 5 mg up-titrated to 12 mg SC QW over 4 weeks): generally well tolerated; also recorded: generally well-tolerated; also recorded: favorable tolerability profile | tolerated dosing exceeds the pharmacologically active dose ([2]; 26-weeks): 100 fold | tolerability, chronic toxicology ([2]; repeat dosing over 26-weeks): well tolerated

Source: patent publication US20240390464A1, “Treatment of Adults With Overweight or Obesity With or Without Weight-Related Comorbidities” (Carmot Therapeutics Inc., priority 2023, published 2024)
